Experimental data taken from ChEMBL document CHEMBL1201862, “PubChem BioAssay data set” (2004).
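Interpolation was linear, between the two tested concentrations surrounding the appropriate level; five concentrations were tested over 48 hours in 96-well plates. GI50 is the concentration that inhibits growth by half.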 Activity calls are given as the source filed them. Rule as the data show it: active = GI50 up to about 1.1 µM and inactive = higher.

Assays:
Assay in all cases: DTP human tumour cell line panel, 48 h
[1] = test system: SK-MEL-5
[2] = test system: SW-620
[3] = test system: NCI-H226
[4] = test system: HCC 2998
[5] = test system: RXF 393
[6] = test system: EKVX
[7] = test system: K562
[8] = test system: CAKI-1
[9] = test system: SK-OV-3
[10] = test system: COLO 205
[11] = test system: NCI-H23
[12] = test system: TK-10
[13] = test system: 786-0
[14] = test system: U-251
[15] = test system: LOX IMVI
[16] = test system: HL-60
[17] = test system: MOLT-4

Measured: GI50

NC(=S)N/N=C1\C(=O)N(CCc2ccccc2)C(=O)C1C(=O)NCCc1ccccc1 (stereo unspecified)
inactive: [1] > 100 µM | [2] > 100 µM | [3] > 100 µM | [4] > 100 µM | [5] > 100 µM | [6] > 100 µM | [7] > 100 µM | [8] > 100 µM | [9] > 100 µM | [10] > 100 µM | [11] > 100 µM | [12] > 100 µM | [13] > 100 µM | [14] > 100 µM | [15] > 100 µM

COC(=O)c1c(N)n[nH]c1N
inactive: [1] > 100 µM | [2] > 100 µM | [4] > 100 µM | [5] > 100 µM | [16] > 100 µM | [6] > 100 µM | [7] > 100 µM | [8] > 100 µM | [17] > 100 µM | [9] > 100 µM | [10] > 100 µM | [11] > 100 µM | [12] > 100 µM | [13] > 100 µM | [14] > 100 µM | [15] > 100 µM

Cc1ccc(/C=C2\CCCCC2=O)cc1
inactive: [1] 91.6 µM | [2] > 100 µM | [16] 19 µM | [6] > 100 µM | [7] 25.7 µM | [8] 42.7 µM | [17] 15.8 µM | [9] > 100 µM | [10] > 100 µM | [11] > 100 µM | [12] > 100 µM | [13] > 100 µM | [14] > 100 µM | [15] 31.5 µM

CN(CC1NCCCC1O)C12CC3CC(CC(C3)C1)C2 (stereo unspecified)
inactive: [2] > 100 µM | [3] > 100 µM | [4] > 100 µM | [16] > 100 µM | [6] > 100 µM | [7] 70.8 µM | [8] > 100 µM | [17] > 100 µM | [9] > 100 µM | [10] > 100 µM | [11] > 100 µM | [12] > 100 µM | [13] > 100 µM | [14] > 100 µM | [15] > 100 µM

CC1(C)c2ccccc2N2C(c3ccccc3)=NOC21C (stereo unspecified)
inactive: [1] > 100 µM | [2] > 100 µM | [3] > 100 µM | [5] > 100 µM | [16] > 100 µM | [6] > 100 µM | [7] > 100 µM | [8] > 100 µM | [17] > 100 µM | [9] > 100 µM | [10] > 100 µM | [11] > 100 µM | [12] > 100 µM | [13] > 100 µM | [14] > 100 µM | [15] > 100 µM

Cc1c2n(c(=O)[nH]c1=O)C1OC(CO)C(N=[N+]=[N-])C1O2 (stereo unspecified)
inactive: [1] > 100 µM | [2] > 100 µM | [3] > 100 µM | [5] 28 µM | [16] > 100 µM | [6] 55.3 µM | [7] 92.5 µM | [8] > 100 µM | [17] > 100 µM | [9] > 100 µM | [10] > 100 µM | [11] > 100 µM | [12] > 100 µM | [13] > 100 µM | [14] > 100 µM | [15] > 100 µM

CC(C)N(CCn1c2c3ccccc3ccc2c2oc(=O)c3ccccc3c21)C(C)C
inactive: [2] > 100 µM | [3] > 100 µM | [5] > 100 µM | [16] > 100 µM | [6] > 100 µM | [7] > 100 µM | [8] > 100 µM | [17] > 100 µM | [9] > 100 µM | [10] > 100 µM | [11] > 100 µM | [12] > 100 µM | [13] 50.4 µM | [14] > 86.9 µM | [15] > 100 µM

O=c1c2ccccc2c2nc3ccccc3nc2n1C1CCCCC1
inactive: [1] > 100 µM | [2] > 100 µM | [3] > 100 µM | [4] > 100 µM | [5] > 100 µM | [6] > 100 µM | [7] > 100 µM | [8] > 100 µM | [17] > 100 µM | [9] > 100 µM | [10] > 100 µM | [11] > 100 µM | [12] > 100 µM | [13] > 100 µM | [14] > 100 µM

c1ccc(C(c2ccccc2)c2ccccn2)cc1
inactive: [1] > 100 µM | [2] > 100 µM | [3] > 100 µM | [4] > 100 µM | [6] > 100 µM | [7] > 100 µM | [8] > 100 µM | [9] > 100 µM | [10] > 100 µM | [11] > 100 µM | [12] > 100 µM | [13] > 100 µM | [14] > 100 µM | [15] > 100 µM
